According to publication PMC5224920, “Assessing the mechanism and therapeutic potential of modulators of the human Mediator complex-associated protein kinases” (eLife, 2016):

Tested on: 12 single or co-culture in vitro tissue models of primary cells
Experiment: Culture/co-culture cell model panel, extracellular biomarkers (DiscoveRx); as to CCL2/MCP-1: reference of the scale not given here; as to CXCL8/IL-8: reference of the scale not given here; as to CXCL9/MIG: reference of the scale not given here; as to IL-1alpha: reference of the scale not given here; as to M-CSF: reference of the scale not given here; as to PBMC Cytotoxicity: reference of the scale not given here; as to SRB: reference of the scale not given here; as to sTNF-alpha: reference of the scale not given here
Assay type: cell-based, human
Conditions: for B cell Proliferation / PBMC Cytotoxicity / Secreted IgG / sIL-2 / sIL-6 / sIL-17A / sIL-17F / sTNF-alpha: BT
[1] = HDF3CGF stimulated fibroblasts, 1.00E0 nM
[2] = HDF3CGF stimulated fibroblasts, 1.00E1 nM
[3] = HDF3CGF stimulated fibroblasts, 1.00E2 nM
[4] = HDF3CGF stimulated fibroblasts, 1.00E3 nM

Compound `CN1c2ccc(-c3cncc(Cl)c3N3CCC4(CC3)CNC(=O)O4)cc2CS1(=O)=O` [CMPD2] has an SRB (BENo, 1.00E3 nM) of 0.003, a tPA (BENo, 1.00E3 nM) of 0.049 and a uPA (BENo, 1.00E3 nM) of 0.021. For the same compound, the CCL26/Eotaxin-3 (BENo, 1.00E4 nM) was 0.048, the CD54/ICAM-1 (BENo, 1.00E4 nM) was -0.033 and the CD87/uPAR (BENo, 1.00E4 nM) was 0.057. For the same compound, the CXCL8/IL-8 (BENo, 1.00E4 nM) was 0.016, the CXCL9/MIG (BENo, 1.00E4 nM) was 0.075 and the CXCL10/IP-10 (BENo, 1.00E4 nM) was 0.073. The CXCL11/I-TAC (BENo, 1.00E4 nM) was 0.025, the EGFR (BENo, 1.00E4 nM) was 0.043 and the HLA-DR (BENo, 1.00E4 nM) was 0.040. For the same compound, the IL-1alpha (BENo, 1.00E4 nM) was -0.020, the “Keratin 8/18” value (BENo, 1.00E4 nM) was 0.022 and the MMP-1 (BENo, 1.00E4 nM) was 0.039. It also gave an MMP-9 (BENo, 1.00E4 nM) of 0.031, a PAI-I (BENo, 1.00E4 nM) of -0.100 and an SRB (BENo, 1.00E4 nM) of 0.001. The tPA (BENo, 1.00E4 nM) was 0.040, the uPA (BENo, 1.00E4 nM) was -0.00475 and the CCL2/MCP-1 (BF4T, 1.00E0 nM) was 0.022. For the same compound, the CCL26/Eotaxin-3 (BF4T, 1.00E0 nM) was -0.032, the CD54/ICAM-1 (BF4T, 1.00E0 nM) was -0.00361 and the CD90 (BF4T, 1.00E0 nM) was -0.036. It also gave a CD106/VCAM-1 (BF4T, 1.00E0 nM) of 0.043, a CXCL8/IL-8 (BF4T, 1.00E0 nM) of 0.040 and an IL-1alpha (BF4T, 1.00E0 nM) of 0.007. The “Keratin 8/18” value (BF4T, 1.00E0 nM) was -0.001, the MMP-1 (BF4T, 1.00E0 nM) was 0.030 and the MMP-3 (BF4T, 1.00E0 nM) was 0.082. For the same compound, the MMP-9 (BF4T, 1.00E0 nM) was 0.039, the PAI-I (BF4T, 1.00E0 nM) was -0.008 and the SRB (BF4T, 1.00E0 nM) was 0.004. It also gave a tPA (BF4T, 1.00E0 nM) of 0.051, a uPA (BF4T, 1.00E0 nM) of 0.046 and a CCL2/MCP-1 (BF4T, 1.00E1 nM) of -0.011. The CCL26/Eotaxin-3 (BF4T, 1.00E1 nM) was -0.107, the CD54/ICAM-1 (BF4T, 1.00E1 nM) was -0.027 and the CD90 (BF4T, 1.00E1 nM) was -0.009. The CD106/VCAM-1 (BF4T, 1.00E1 nM) was 0.033, the CXCL8/IL-8 (BF4T, 1.00E1 nM) was 0.048 and the IL-1alpha (BF4T, 1.00E1 nM) was 0.020. The “Keratin 8/18” value (BF4T, 1.00E1 nM) was -0.009, the MMP-1 (BF4T, 1.00E1 nM) was 0.022 and the MMP-3 (BF4T, 1.00E1 nM) was 0.075. It also gave an MMP-9 (BF4T, 1.00E1 nM) of 0.012, a PAI-I (BF4T, 1.00E1 nM) of 0.023 and an SRB (BF4T, 1.00E1 nM) of -0.00108. It also gave a tPA (BF4T, 1.00E1 nM) of 0.047, a uPA (BF4T, 1.00E1 nM) of 0.034 and a CCL2/MCP-1 (BF4T, 1.00E2 nM) of -0.025. It also gave a CCL26/Eotaxin-3 (BF4T, 1.00E2 nM) of -0.086, a CD54/ICAM-1 (BF4T, 1.00E2 nM) of -0.020 and a CD90 (BF4T, 1.00E2 nM) of 0.002. It also gave a CD106/VCAM-1 (BF4T, 1.00E2 nM) of 0.042, a CXCL8/IL-8 (BF4T, 1.00E2 nM) of 0.050 and an IL-1alpha (BF4T, 1.00E2 nM) of 0.00136. For the same compound, the “Keratin 8/18” value (BF4T, 1.00E2 nM) was 0.009, the MMP-1 (BF4T, 1.00E2 nM) was 0.008 and the MMP-3 (BF4T, 1.00E2 nM) was 0.053. For the same compound, the MMP-9 (BF4T, 1.00E2 nM) was 0.008, the PAI-I (BF4T, 1.00E2 nM) was 0.039 and the SRB (BF4T, 1.00E2 nM) was 4.82e-5. It also gave a tPA (BF4T, 1.00E2 nM) of 0.063, a uPA (BF4T, 1.00E2 nM) of 0.022 and a CCL2/MCP-1 (BF4T, 1.00E3 nM) of -0.016. The CCL26/Eotaxin-3 (BF4T, 1.00E3 nM) was -0.102, the CD54/ICAM-1 (BF4T, 1.00E3 nM) was -0.022 and the CD90 (BF4T, 1.00E3 nM) was -0.000476. For the same compound, the CD106/VCAM-1 (BF4T, 1.00E3 nM) was 0.044, the CXCL8/IL-8 (BF4T, 1.00E3 nM) was 0.047 and the IL-1alpha (BF4T, 1.00E3 nM) was -0.00456. The “Keratin 8/18” value (BF4T, 1.00E3 nM) was 0.007, the MMP-1 (BF4T, 1.00E3 nM) was 0.015 and the MMP-3 (BF4T, 1.00E3 nM) was 0.034. It also gave an MMP-9 (BF4T, 1.00E3 nM) of 0.024, a PAI-I (BF4T, 1.00E3 nM) of 0.026 and an SRB (BF4T, 1.00E3 nM) of 0.00277. The tPA (BF4T, 1.00E3 nM) was 0.071, the uPA (BF4T, 1.00E3 nM) was 0.023 and the CCL2/MCP-1 (BF4T, 1.00E4 nM) was -0.034. The CCL26/Eotaxin-3 (BF4T, 1.00E4 nM) was -0.125, the CD54/ICAM-1 (BF4T, 1.00E4 nM) was -0.043 and the CD90 (BF4T, 1.00E4 nM) was 0.000654. The CD106/VCAM-1 (BF4T, 1.00E4 nM) was 0.043, the CXCL8/IL-8 (BF4T, 1.00E4 nM) was 0.030 and the IL-1alpha (BF4T, 1.00E4 nM) was -0.00143. The “Keratin 8/18” value (BF4T, 1.00E4 nM) was -0.023, the MMP-1 (BF4T, 1.00E4 nM) was 0.010 and the MMP-3 (BF4T, 1.00E4 nM) was 0.027. The MMP-9 (BF4T, 1.00E4 nM) was -0.007, the PAI-I (BF4T, 1.00E4 nM) was -0.013 and the SRB (BF4T, 1.00E4 nM) was 0.000752. The tPA (BF4T, 1.00E4 nM) was 0.037, the uPA (BF4T, 1.00E4 nM) was 0.017 and the “B cell Proliferation” value (1.00E0 nM) was -0.010. The “PBMC Cytotoxicity” value (1.00E0 nM) was 0.032, the “Secreted IgG” value (1.00E0 nM) was 0.088 and the sIL-2 (1.00E0 nM) was 0.154. It also gave a sIL-6 (1.00E0 nM) of 0.00536, a sIL-17A (1.00E0 nM) of -0.061 and a sIL-17F (1.00E0 nM) of -0.213. The sTNF-alpha (1.00E0 nM) was 0.097, the “B cell Proliferation” value (1.00E1 nM) was -0.033 and the “PBMC Cytotoxicity” value (1.00E1 nM) was -0.030. For the same compound, the “Secreted IgG” value (1.00E1 nM) was -0.163, the sIL-2 (1.00E1 nM) was 0.264 and the sIL-6 (1.00E1 nM) was 0.057. It also gave a sIL-17A (1.00E1 nM) of 0.173, a sIL-17F (1.00E1 nM) of -0.239 and a sTNF-alpha (1.00E1 nM) of 0.051. The “B cell Proliferation” value (1.00E2 nM) was -0.057, the “PBMC Cytotoxicity” value (1.00E2 nM) was -0.030 and the “Secreted IgG” value (1.00E2 nM) was -0.186. For the same compound, the sIL-2 (1.00E2 nM) was 0.109, the sIL-6 (1.00E2 nM) was 0.035 and the sIL-17A (1.00E2 nM) was 0.214. The sIL-17F (1.00E2 nM) was -0.485, the sTNF-alpha (1.00E2 nM) was 0.059 and the “B cell Proliferation” value (1.00E3 nM) was -0.027. The “PBMC Cytotoxicity” value (1.00E3 nM) was -0.033, the “Secreted IgG” value (1.00E3 nM) was 0.074 and the sIL-2 (1.00E3 nM) was 0.068. For the same compound, the sIL-6 (1.00E3 nM) was 0.046, the sIL-17A (1.00E3 nM) was 0.216 and the sIL-17F (1.00E3 nM) was -0.463. For the same compound, the sTNF-alpha (1.00E3 nM) was 0.076, the “B cell Proliferation” value (1.00E4 nM) was -0.077 and the “PBMC Cytotoxicity” value (1.00E4 nM) was -0.046. The “Secreted IgG” value (1.00E4 nM) was -0.114, the sIL-2 (1.00E4 nM) was -0.00739 and the sIL-6 (1.00E4 nM) was -0.075. For the same compound, the sIL-17A (1.00E4 nM) was 0.256, the sIL-17F (1.00E4 nM) was -0.594 and the sTNF-alpha (1.00E4 nM) was 0.009. The CCL2/MCP-1 [1] was -0.018, the CD54/ICAM-1 [1] was 0.007 and the CD106/VCAM-1 [1] was -0.010. The CXCL8/IL-8 [1] was -0.008, the CXCL9/MIG [1] was -0.000757 and the CXCL10/IP-10 [1] was 0.037. The CXCL11/I-TAC [1] was 0.014, the “Collagen I” value [1] was 0.035 and the “Collagen III” value [1] was 0.042. For the same compound, the EGFR [1] was 0.046, the M-CSF [1] was -0.058 and the MMP-1 [1] was 0.070. The PAI-I [1] was 0.087, the Proliferation_72hr [1] was -0.036 and the SRB [1] was 0.000177. It also gave a TIMP-1 [1] of 0.025, a TIMP-2 [1] of 0.118 and a CCL2/MCP-1 [2] of -0.070. The CD54/ICAM-1 [2] was -0.021, the CD106/VCAM-1 [2] was 0.006 and the CXCL8/IL-8 [2] was -0.045. It also gave a CXCL9/MIG [2] of -0.030, a CXCL10/IP-10 [2] of 0.050 and a CXCL11/I-TAC [2] of -0.011. For the same compound, the “Collagen I” value [2] was 0.014, the “Collagen III” value [2] was 0.091 and the EGFR [2] was -0.013. It also gave a M-CSF [2] of -0.075, an MMP-1 [2] of 0.050 and a PAI-I [2] of 0.006. It also gave a Proliferation_72hr [2] of -0.171, an SRB [2] of -0.008 and a TIMP-1 [2] of -0.010. The TIMP-2 [2] was 0.117, the CCL2/MCP-1 [3] was -0.120 and the CD54/ICAM-1 [3] was -0.051. For the same compound, the CD106/VCAM-1 [3] was 0.051, the CXCL8/IL-8 [3] was -0.095 and the CXCL9/MIG [3] was -0.077. The CXCL10/IP-10 [3] was 0.043, the CXCL11/I-TAC [3] was -0.010 and the “Collagen I” value [3] was 0.00565. For the same compound, the “Collagen III” value [3] was 0.086, the EGFR [3] was -0.067 and the M-CSF [3] was -0.100. For the same compound, the MMP-1 [3] was 0.024, the PAI-I [3] was -0.00168 and the Proliferation_72hr [3] was -0.240. The SRB [3] was 0.000238, the TIMP-1 [3] was -0.059 and the TIMP-2 [3] was 0.121. It also gave a CCL2/MCP-1 [4] of -0.156, a CD54/ICAM-1 [4] of -0.066 and a CD106/VCAM-1 [4] of 0.036. The CXCL8/IL-8 [4] was -0.119, the CXCL9/MIG [4] was -0.093 and the CXCL10/IP-10 [4] was 0.039. For the same compound, the CXCL11/I-TAC [4] was -0.012, the “Collagen I” value [4] was 0.040 and the “Collagen III” value [4] was 0.054.
